Activity calls are given as the source filed them. The calls are words filed in the database; no cut-off is given here.
Experiments:
Mus musculus [1] = test: In vivo agonist activity against PPARalpha/delta assessed as upregulation of Ugt1a9 mRNA expression in C57BL/6Nifdc mouse liver at 10 mg/kg, po for 4 days; assay type: functional, organism-based; conditions: time 4.0 day
Mus musculus [2] = test: Anti-inflammatory activity in HF-CDAA-induced nonalcoholic steatohepatitis C57BL/6JNifdc mouse model assessed as decrease in Ccl4 mRNA expression at 10 mg/kg, po; assay type: functional, organism-based
Mus musculus [3] = test: In vivo agonist activity against PPARalpha/delta assessed as upregulation of Plin5 mRNA expression in C57BL/6Nifdc mouse skeletal muscle at 10 mg/kg, po for 4 days; assay type: functional, organism-based; conditions: time 4.0 day
Mus musculus [4] = test: In vivo agonist activity at PPARalpha/delta assessed as upregulation of Lpin2 mRNA expression in C57BL/6Nifdc mouse liver at 10 mg/kg, po for 4 days; assay type: functional, organism-based; conditions: time 4.0 day
Mus musculus [5] = test: Anti-fibrosis effect in CCl4 induced liver fibrosis C57BL/6JNifdc mouse model assessed as decrease in level of hydroxyproline level at 3 to 30 mg/kg, po after 20 hrs […]; assay type: functional, organism-based; conditions: dose 3-30 mg/kg
Mus musculus [6] = test: Anti-NASH activity in HF-CDAA-induced nonalcoholic steatohepatitis C57BL/6JNifdc mouse model assessed as reversal of inflammatory infilitration 3 to 30 mg/kg, po by H and E staining method; assay type: functional, organism-based; conditions: dose 3-30 mg/kg
Mus musculus [7] = test: In vivo agonist activity against PPARalpha/delta assessed as upregulation of -Retsat mRNA expression in C57BL/6Nifdc mouse skeletal muscle at 10 mg/kg, po for 4 days; assay type: functional, organism-based; conditions: time 4.0 day
Mus musculus [8] = test: In vivo agonist activity against PPARalpha/delta assessed as upregulation of Ucp3 mRNA expression in C57BL/6Nifdc mouse skeletal muscle at 10 mg/kg, po for 4 days; assay type: functional, organism-based; conditions: time 4.0 day
Mus musculus [9] = test: In vivo agonist activity against PPARalpha/delta assessed as upregulation of Slc25a20 mRNA expression in C57BL/6Nifdc mouse skeletal muscle at 10 mg/kg, po for 4 days; assay type: functional, organism-based; conditions: time 4.0 day
Mus musculus [10] = test: In vivo agonist activity at PPARalpha/delta assessed as upregulation of Pex11a mRNA expression in C57BL/6Nifdc mouse liver at 10 mg/kg, po for 4 days; assay type: functional, organism-based; conditions: time 4.0 day
AML12 [11] = test: Agonist activity against PPARalpha/delta (unknown origin) assessed as upregulation of ACADVL mRNA expression in […] cells at 8 nM incubated for 12 hrs by RT-PCR analysis; assay type: cell-based; conditions: filed as agonist
Mus musculus [12] = test: In vivo agonist activity against PPARalpha/delta assessed as upregulation of -Cidea mRNA expression in C57BL/6Nifdc mouse skeletal muscle at 10 mg/kg, po for 4 days; assay type: functional, organism-based; conditions: time 4.0 day
Mus musculus [13] = test: Anti-NASH activity in HF-CDAA-induced nonalcoholic steatohepatitis C57BL/6JNifdc mouse model assessed as reduction in steatosis by measuring hepatic triglyceride level at 3 to 30 mg/kg, po; assay type: functional, organism-based; conditions: dose 3-30 mg/kg
Mus musculus [14] = test: In vivo agonist activity at PPARalpha/delta assessed as upregulation of […] mRNA expression in C57BL/6Nifdc mouse liver at 10 mg/kg, po for 4 days; assay type: functional, organism-based; conditions: time 4.0 day
C2C12 [15] = test: Agonist activity against PPARalpha/delta (unknown origin) assessed as upregulation of Angpt14 mRNA expression in […] cells incubated for 12 hrs by RT-PCR analysis; assay type: cell-based; conditions: filed as agonist, dose 8-200 nM
Mus musculus [16] = test: Anti-NASH activity in HF-CDAA-induced nonalcoholic steatohepatitis C57BL/6JNifdc mouse model assessed as lipid number at 3 to 30 mg/kg, po by H and E staining method; assay type: functional, organism-based; conditions: dose 3-30 mg/kg
C2C12 [17] = test: Agonist activity against PPARalpha/delta (unknown origin) assessed as upregulation of Cpt1A mRNA expression in […] cells at 8 nM incubated for 12 hrs by RT-PCR analysis; assay type: cell-based; conditions: filed as agonist
AML12 [18] = test: Agonist activity against PPARalpha/delta (unknown origin) assessed as upregulation of Pdk4 mRNA expression in […] cells incubated for 12 hrs by RT-PCR analysis; assay type: cell-based; conditions: filed as agonist, dose 8-200 nM
[19] = target: Voltage-gated inwardly rectifying potassium channel KCNH2 (Homo sapiens, UniProt Q12809); test: Inhibition of hERG potassium channel in HEK293 cells upto 30 uM by whole-cell patch clamp assay; assay type: toxicity, cell-based
[20] = target: T1, Peroxisome proliferator-activated receptor alpha (Homo sapiens) (UniProt Q07869); conditions: filed as agonist, dose 10.0 nM
T1 sequence (whole entry): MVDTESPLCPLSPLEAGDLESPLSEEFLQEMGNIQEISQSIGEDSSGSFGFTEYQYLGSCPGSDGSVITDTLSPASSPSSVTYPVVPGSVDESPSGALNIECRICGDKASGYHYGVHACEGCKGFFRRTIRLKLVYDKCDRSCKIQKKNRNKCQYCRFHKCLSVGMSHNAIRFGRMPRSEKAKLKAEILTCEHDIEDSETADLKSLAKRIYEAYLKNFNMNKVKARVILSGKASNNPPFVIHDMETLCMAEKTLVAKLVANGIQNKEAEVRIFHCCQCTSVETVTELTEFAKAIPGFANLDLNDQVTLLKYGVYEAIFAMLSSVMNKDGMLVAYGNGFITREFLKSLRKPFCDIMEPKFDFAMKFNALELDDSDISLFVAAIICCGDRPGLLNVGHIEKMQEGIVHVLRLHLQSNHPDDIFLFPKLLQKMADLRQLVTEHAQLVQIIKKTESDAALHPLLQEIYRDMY
Description: Agonist activity at PPARalpha (unknown origin) assessed as maximal activation at 10 nM relative to GW7647

Sequence of Voltage-gated inwardly rectifying potassium channel KCNH2 (Q12809 whole entry): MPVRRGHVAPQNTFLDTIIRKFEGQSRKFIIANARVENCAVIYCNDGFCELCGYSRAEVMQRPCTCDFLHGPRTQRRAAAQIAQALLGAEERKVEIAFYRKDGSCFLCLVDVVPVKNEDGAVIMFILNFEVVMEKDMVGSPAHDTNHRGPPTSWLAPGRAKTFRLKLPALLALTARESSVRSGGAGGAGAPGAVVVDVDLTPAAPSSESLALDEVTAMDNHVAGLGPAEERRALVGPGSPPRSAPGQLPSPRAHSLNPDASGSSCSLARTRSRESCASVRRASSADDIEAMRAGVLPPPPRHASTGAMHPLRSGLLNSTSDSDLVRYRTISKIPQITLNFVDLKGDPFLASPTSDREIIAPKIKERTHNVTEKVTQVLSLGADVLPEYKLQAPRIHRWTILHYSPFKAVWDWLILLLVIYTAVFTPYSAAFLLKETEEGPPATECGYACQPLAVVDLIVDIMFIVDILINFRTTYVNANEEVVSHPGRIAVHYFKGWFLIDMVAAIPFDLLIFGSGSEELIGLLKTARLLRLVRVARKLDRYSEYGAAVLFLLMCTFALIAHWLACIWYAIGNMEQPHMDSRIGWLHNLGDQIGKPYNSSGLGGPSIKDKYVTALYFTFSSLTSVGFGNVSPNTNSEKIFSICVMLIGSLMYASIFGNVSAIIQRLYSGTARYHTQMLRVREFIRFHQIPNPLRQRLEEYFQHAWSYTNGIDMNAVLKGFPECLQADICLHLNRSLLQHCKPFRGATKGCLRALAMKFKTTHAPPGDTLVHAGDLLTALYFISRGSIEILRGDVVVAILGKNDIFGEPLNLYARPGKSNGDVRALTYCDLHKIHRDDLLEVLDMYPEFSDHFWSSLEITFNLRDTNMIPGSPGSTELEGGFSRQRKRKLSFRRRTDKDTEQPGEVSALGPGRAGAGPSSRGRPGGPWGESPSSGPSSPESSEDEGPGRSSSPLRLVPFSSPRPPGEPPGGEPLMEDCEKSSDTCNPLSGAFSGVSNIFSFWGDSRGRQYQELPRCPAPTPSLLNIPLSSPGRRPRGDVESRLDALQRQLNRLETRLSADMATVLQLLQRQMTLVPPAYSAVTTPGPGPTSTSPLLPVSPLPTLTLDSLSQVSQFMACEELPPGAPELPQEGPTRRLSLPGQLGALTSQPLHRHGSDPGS

`Cc1cc(Cn2ncn(-c3ccc(OC(F)(F)F)cc3)c2=O)cc(C)c1OC(C)(C)C(=O)O` was tested, and the Activity (Mus musculus [1]) was “Active”, the Activity (Mus musculus [2]) was “Active” and the Activity (Mus musculus [3]) was “Active”. For the same compound, the Activity (Mus musculus [4]) was “Active”, the Activity (Mus musculus [5]) was “Active” and the Activity (Mus musculus [6]) was “Active”. For the same compound, the Activity (Mus musculus [7]) was “Active”, the Activity (Mus musculus [8]) was “Active” and the Activity (Mus musculus [9]) was “Active”. For the same compound, the Activity (Mus musculus [10]) was “Active”, the Activity (AML12 [11]) was “Active” and the Activity (Mus musculus [12]) was “Active”. For the same compound, the Activity (Mus musculus [13]) was “Active”, the Activity (Mus musculus [14]) was “Active” and the Activity (C2C12 [15]) was “Dose-Dependent Effect”. For the same compound, the Activity (Mus musculus [16]) was “Active”, the Activity (C2C12 [17]) was “Active” and the Activity (AML12 [18]) was “Dose-Dependent Effect”. The “inhibition (INH)” value [19] was “Active” and the Emax [20] was 110%.
